# Test results as given in ChEMBL document CHEMBL1201862, “PubChem BioAssay data set” (2004).
# Calls of active or inactive are those of the source.
# Key:
# [1] = Luminescence Cell-Based Dose Confirmation HTS to Identify Activators of 5'UTR Stem-Loop Driven Alpha-Synuclein mRNA Translation in H4 Neuroglioblastoma Cells. [Related pubchem assays: 1829 (Project Summary), 1814 (Primary HTS)]; assay type: functional
# [2] = Luminescence Cell-Based Dose Response HTS to Identify Activators of Luciferase Translation or Activity in H4 […] Cells. [Related pubchem assays: 1829 (Project Summary), 1814 (Primary HTS)]; assay type: functional
# [3] = system: Streptococcus sp. 'group A'; test: Streptococcus pyogenes SK(-)GAS viability under kanamycin – luminescence, BacTiterGlo, confirmation, counter-screen for streptokinase expression inhibitor project, dose response (AID 1900); assay type: functional, organism-based
# [4] = system: H4; test: Luminescence Cell-Based Dose Response HTS to Identify Activators of 5'UTR Stem-Loop Driven Prion Protein mRNA Translation in H4 Neuroglioblastoma Cells. [Related pubchem assays: 1829 (Project Summary), 1814 (Primary HTS)]; assay type: functional; details: Homo sapiens
# [5] = system: Streptococcus; test: GAS UMAA2166 growth inhibition – luminescence, BacTiterGlo, counter-screen for streptokinase expression inhibitor project, dose response (AID 1915); assay type: functional, organism-based;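 further: potency for reduction of bacterial viability or growth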
# [6] = target: T1, Endoribonuclease toxin MazF (Escherichia coli K-12, UniProt P0AE70); test: activation of MazEF endoribonuclease cleavage – biochemical, fluorescence, single-stranded RNA substrate, uHTS hits, dose response (AID 588481); assay type: functional
# T1 sequence (P0AE70 whole entry): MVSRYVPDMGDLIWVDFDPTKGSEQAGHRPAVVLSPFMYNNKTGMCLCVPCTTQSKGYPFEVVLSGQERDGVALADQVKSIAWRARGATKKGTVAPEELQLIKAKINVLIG
# [7] = target: T1, Endoribonuclease toxin MazF; test: substrate-only fluorescence increase artefacts – biochemical, single-stranded RNase substrate, counter-screen for MazEF activator project, dose response (AID 588502); assay type: functional
# [8] = cells; assay type: functional, cell-based
# [9] = target: T2, Nuclear receptor subfamily 0 group B member 1 (Homo sapiens, UniProt P51843); assay type: functional, cell-based;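 further: HEK293T cells transfected with SF-1 and DAX-1 plus StAR promoter luciferase reporter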
# T2 sequence (P51843 whole entry): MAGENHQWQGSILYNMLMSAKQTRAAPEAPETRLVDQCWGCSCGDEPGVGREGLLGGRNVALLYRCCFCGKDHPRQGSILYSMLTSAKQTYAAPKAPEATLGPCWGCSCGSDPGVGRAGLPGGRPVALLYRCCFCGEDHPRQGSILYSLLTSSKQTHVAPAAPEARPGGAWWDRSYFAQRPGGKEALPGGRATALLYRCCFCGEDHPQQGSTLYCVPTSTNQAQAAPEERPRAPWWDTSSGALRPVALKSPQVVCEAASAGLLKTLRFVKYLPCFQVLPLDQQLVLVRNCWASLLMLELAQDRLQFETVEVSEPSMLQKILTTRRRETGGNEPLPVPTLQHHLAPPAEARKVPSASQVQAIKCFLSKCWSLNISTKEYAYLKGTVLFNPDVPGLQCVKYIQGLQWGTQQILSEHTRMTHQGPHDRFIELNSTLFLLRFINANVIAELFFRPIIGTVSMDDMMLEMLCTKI
# [10] = target: Albumin (Bos taurus, UniProt P02769); test: Counterscreen for inhibitors of T-cell receptor (TCR)-CD3 interaction: Fluorescence-based biochemical high throughput dose response assay to identify inhibitors of T-cell receptor (TCR)-CD3 interaction using a TAMRA-labeled BSA probe.; assay type: functional
# Albumin, sequence (P02769 whole entry): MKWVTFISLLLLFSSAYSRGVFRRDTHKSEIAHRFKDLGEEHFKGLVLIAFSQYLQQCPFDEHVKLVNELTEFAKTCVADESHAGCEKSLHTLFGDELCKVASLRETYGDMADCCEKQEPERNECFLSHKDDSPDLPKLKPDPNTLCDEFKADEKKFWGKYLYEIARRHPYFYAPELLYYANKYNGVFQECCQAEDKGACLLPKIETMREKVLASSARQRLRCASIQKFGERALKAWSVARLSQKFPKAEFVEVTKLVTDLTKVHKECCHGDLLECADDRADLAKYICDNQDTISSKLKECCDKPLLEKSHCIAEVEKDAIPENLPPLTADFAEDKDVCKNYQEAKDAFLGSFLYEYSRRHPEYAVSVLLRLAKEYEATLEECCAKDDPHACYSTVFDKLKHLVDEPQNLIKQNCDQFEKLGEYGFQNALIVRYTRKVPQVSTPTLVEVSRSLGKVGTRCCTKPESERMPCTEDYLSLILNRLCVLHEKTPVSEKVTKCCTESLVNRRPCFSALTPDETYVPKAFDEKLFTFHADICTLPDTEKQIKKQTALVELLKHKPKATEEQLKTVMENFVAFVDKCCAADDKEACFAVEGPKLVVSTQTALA
# [11] = target: T3, Sentrin-specific protease 8 (Homo sapiens, UniProt Q96LD8); assay type: functional
# T3 sequence (Q96LD8 whole entry): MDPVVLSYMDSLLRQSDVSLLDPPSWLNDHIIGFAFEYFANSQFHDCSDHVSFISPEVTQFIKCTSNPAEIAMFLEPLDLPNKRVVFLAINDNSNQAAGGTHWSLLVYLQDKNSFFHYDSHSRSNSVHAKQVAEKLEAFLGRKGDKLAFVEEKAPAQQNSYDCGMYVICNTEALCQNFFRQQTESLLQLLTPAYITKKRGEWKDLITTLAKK
# [12] = target: T3, Sentrin-specific protease 8; assay type: functional; remark: listed apart in the source
# [13] = target: T4, Small ubiquitin-related modifier 1 (Homo sapiens, UniProt P63165); test: SUMO1 protein interaction blockers, potency – biochemical, fluorescence polarization, uHTS hits, dose response (AID 624382); assay type: functional; details: read-out: IC50_Mean
# T4 sequence (P63165 whole entry): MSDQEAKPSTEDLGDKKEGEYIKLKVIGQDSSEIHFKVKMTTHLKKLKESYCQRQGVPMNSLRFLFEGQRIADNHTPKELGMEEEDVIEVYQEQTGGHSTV
# [14] = target: T4, Small ubiquitin-related modifier 1; test: SUMO1 protein-protein binding blockers, potency – biochemical, FRET, dose response (AID 624383); assay type: functional; details: read-out: IC50_Mean
# [15] = cells; assay type: functional, cell-based; remark: listed apart in the source
# [16] = cells; assay type: functional, cell-based; remark: listed apart in the source
# [17] = target: T5, Probable nicotinate-nucleotide adenylyltransferase (Staphylococcus aureus (strain N315), UniProt P65502); assay type: functional, Staphylococcus aureus subsp. aureus N315;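 on IC50 Mean: confirmatory dose-response retesting of NadD inhibitor hits first found in an ultra-high-throughput screen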
# T5 sequence (P65502 whole entry): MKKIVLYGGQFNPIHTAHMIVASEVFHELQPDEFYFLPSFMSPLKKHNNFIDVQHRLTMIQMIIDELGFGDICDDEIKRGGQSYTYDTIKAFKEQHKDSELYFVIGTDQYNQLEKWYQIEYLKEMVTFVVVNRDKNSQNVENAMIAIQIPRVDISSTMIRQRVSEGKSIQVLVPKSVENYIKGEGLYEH
# [18] = target: T5, Probable nicotinate-nucleotide adenylyltransferase; assay type: functional, Staphylococcus aureus subsp. aureus N315; details: read-out: IC50_Mean
# [19] = target: NS3 (Hepatitis C virus, UniProt A3EZJ3); test: PubChem AID 2173; parameters: species or system Hepacivirus hominis
# NS3, sequence (A3EZJ3 whole entry): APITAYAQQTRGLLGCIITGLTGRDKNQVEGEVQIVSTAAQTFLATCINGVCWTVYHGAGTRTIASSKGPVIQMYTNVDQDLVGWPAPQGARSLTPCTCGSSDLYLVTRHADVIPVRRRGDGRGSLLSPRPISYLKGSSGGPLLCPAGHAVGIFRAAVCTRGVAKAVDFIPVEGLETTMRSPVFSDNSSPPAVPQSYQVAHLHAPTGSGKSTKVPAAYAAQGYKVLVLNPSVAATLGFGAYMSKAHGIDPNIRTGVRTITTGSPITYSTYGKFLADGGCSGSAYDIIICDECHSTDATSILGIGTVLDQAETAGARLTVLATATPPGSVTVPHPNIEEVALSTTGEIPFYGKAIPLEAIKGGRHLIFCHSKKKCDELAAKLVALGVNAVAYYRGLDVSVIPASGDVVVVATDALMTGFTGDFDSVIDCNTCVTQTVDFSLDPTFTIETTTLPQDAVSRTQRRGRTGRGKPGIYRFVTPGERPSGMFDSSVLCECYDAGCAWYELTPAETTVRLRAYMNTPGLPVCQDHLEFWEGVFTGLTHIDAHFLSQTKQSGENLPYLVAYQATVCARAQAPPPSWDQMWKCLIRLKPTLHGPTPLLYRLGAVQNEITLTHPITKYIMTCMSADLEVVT
# [20] = target: Induced myeloid leukemia cell differentiation protein Mcl-1 (Homo sapiens, UniProt Q07820); assay type: functional
# Induced myeloid leukemia cell differentiation protein Mcl-1, sequence (Q07820 whole entry): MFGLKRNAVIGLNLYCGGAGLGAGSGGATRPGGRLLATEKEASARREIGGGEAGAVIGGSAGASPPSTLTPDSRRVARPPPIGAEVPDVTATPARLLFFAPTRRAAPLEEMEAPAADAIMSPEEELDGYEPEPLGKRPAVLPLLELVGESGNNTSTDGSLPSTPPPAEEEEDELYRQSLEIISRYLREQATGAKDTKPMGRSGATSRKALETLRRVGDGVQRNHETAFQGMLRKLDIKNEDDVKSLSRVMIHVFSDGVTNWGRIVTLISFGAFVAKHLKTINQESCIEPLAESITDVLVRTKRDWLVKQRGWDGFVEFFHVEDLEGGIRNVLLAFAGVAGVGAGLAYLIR
# [21] = target: Glucose-6-phosphate 1-dehydrogenase (Homo sapiens, UniProt P11413); test: inhibition of Homo sapiens G6PD, dose series – biochemical, fluorescence, selectivity assay for P. falciparum G6PD inhibitor project, dose response (AID 504792); assay type: functional
# Glucose-6-phosphate 1-dehydrogenase, sequence (P11413 whole entry): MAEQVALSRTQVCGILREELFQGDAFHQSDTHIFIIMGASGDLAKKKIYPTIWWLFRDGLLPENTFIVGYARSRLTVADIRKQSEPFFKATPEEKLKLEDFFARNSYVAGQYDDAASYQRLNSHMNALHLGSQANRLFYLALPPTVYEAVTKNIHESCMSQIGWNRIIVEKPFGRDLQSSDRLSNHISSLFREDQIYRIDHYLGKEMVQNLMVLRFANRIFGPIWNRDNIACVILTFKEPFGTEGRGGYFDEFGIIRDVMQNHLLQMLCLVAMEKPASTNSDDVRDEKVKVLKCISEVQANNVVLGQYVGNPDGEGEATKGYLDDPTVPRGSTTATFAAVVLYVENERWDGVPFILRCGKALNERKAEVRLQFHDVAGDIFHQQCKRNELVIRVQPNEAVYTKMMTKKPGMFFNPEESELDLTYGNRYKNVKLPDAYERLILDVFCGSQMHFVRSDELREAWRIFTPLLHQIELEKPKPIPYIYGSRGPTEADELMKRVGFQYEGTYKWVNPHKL
# [22] = target: T6, Heat shock factor protein 1 (Mus musculus, UniProt P38532); test: enhancement of HSF1-driven luciferase signal – cell-based, NIH3T3, luminescence, dose retest, confirmation (AID 435004); assay type: functional;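 further: stress induced by proteasome inhibitor MG132 added 30 min after compound; luciferase reporter driven by HSF1 response element in NIH3T3 cells; actives raise luminescence as potentiators of the MG132 stress response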
# T6 sequence (P38532 whole entry): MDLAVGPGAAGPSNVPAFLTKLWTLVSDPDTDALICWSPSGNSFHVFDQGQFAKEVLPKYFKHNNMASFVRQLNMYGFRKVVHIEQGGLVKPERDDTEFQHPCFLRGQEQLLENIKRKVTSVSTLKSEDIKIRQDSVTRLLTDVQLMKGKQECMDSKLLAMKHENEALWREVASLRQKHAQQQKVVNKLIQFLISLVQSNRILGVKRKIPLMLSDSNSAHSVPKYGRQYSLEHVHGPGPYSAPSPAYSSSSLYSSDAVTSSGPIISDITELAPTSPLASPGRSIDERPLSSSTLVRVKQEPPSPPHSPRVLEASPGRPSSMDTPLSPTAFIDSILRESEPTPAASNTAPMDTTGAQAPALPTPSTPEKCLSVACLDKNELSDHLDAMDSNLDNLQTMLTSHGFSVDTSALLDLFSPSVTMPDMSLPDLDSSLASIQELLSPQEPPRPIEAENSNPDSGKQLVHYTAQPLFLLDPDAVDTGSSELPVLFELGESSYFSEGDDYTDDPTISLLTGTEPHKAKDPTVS
# [23] = target: Genome polyprotein (dengue virus type 2, UniProt P29990); test: flavivirus cap methylation enzyme inhibition – biochemical, confirmation dose response, primary screen (AID 588689); assay type: functional
# Genome polyprotein, sequence (P29990 2492-3391 limits assumed): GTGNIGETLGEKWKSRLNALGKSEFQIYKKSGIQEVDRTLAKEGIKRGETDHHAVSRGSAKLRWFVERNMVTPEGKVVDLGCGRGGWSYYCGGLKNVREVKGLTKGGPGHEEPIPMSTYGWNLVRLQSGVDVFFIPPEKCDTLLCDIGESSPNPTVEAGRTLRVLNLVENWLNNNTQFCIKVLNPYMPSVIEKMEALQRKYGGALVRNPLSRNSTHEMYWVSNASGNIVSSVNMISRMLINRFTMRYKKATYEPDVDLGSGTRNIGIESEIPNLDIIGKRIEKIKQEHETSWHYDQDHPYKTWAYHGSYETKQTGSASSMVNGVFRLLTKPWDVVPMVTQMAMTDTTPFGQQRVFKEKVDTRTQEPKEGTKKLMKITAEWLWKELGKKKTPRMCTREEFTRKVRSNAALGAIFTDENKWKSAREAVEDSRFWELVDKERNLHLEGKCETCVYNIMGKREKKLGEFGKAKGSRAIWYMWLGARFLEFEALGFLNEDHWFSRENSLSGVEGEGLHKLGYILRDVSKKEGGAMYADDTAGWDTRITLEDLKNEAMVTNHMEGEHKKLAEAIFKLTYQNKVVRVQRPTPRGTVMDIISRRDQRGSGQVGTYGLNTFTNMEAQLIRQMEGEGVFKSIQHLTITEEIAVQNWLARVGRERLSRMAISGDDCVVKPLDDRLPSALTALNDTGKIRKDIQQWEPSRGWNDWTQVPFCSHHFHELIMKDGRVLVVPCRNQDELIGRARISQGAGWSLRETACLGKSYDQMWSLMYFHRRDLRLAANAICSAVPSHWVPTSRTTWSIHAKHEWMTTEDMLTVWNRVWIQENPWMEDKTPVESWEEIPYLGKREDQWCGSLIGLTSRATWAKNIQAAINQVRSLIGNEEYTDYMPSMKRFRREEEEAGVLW
# [24] = target: T7, Carboxy-terminal domain RNA polymerase II polypeptide A small phosphatase 1 (Homo sapiens, UniProt Q9GZU7); test: CTDSP1 inhibitors, concentration-response, biochemical, absorbance readout, ultra-high-throughput screen actives (AID 540297); assay type: functional
# T7 sequence (Q9GZU7 whole entry): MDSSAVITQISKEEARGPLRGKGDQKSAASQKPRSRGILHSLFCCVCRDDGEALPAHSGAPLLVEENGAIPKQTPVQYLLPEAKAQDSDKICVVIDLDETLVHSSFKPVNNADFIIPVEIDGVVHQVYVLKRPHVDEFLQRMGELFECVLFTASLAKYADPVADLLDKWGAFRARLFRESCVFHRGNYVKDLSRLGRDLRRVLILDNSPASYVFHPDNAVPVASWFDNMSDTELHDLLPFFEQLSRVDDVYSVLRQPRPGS
# [25] = target: DNA (cytosine-5)-methyltransferase 1 (Homo sapiens, UniProt P26358); test: inhibition of DNA methylation by DNMT1 – biochemical, fluorescent molecular beacon, confirmation (AID 602386); assay type: functional
# DNA (cytosine-5)-methyltransferase 1, sequence (P26358 whole entry): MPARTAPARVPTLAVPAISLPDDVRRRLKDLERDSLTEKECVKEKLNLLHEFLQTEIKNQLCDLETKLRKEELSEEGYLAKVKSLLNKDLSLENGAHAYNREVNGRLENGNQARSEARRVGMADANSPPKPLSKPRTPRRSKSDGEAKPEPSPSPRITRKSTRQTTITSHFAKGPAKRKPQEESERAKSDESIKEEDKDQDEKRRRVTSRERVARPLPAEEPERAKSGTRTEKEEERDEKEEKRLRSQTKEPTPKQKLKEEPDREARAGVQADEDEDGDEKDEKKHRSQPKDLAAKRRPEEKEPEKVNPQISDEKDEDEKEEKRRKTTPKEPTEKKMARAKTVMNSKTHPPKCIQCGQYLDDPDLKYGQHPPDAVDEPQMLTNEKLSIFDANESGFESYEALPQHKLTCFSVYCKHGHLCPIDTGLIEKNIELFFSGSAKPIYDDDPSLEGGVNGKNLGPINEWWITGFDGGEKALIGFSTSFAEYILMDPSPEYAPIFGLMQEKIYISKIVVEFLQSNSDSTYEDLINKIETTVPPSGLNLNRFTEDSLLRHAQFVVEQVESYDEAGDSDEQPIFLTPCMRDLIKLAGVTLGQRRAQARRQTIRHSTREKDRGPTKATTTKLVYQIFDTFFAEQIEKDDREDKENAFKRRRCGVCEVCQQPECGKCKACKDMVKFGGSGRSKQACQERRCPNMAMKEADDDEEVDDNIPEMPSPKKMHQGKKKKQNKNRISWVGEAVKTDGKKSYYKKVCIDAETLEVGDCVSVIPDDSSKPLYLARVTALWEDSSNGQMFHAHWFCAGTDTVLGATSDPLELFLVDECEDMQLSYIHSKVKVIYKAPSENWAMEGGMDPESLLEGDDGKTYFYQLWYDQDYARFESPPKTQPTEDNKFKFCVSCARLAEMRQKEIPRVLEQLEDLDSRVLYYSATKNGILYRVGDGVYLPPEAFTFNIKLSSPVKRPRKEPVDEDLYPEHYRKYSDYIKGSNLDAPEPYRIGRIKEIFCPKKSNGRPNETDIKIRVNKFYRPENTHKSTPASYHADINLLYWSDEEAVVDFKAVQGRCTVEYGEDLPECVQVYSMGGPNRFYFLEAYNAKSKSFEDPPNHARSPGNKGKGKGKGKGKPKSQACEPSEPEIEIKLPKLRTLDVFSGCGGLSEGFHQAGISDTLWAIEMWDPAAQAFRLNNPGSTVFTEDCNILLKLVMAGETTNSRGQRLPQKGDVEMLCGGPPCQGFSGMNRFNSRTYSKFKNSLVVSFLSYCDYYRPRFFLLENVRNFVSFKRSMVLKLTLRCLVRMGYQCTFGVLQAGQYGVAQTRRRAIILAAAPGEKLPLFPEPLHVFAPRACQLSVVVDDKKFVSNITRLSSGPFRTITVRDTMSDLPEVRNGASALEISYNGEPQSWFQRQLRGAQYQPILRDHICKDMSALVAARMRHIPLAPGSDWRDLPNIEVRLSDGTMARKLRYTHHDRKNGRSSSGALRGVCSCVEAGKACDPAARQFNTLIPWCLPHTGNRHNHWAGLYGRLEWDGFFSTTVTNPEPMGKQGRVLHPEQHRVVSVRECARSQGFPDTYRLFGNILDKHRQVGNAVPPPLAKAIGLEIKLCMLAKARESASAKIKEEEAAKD
# [26] = target: T8, Rac GTPase-activating protein 1 (Homo sapiens, UniProt Q9H0H5); test: blockers of MgcRacGAP-driven Rac1 GTP hydrolysis – biochemical, ADP Hunter fluorescence, primary and confirmatory, confirmation (AID 624330); assay type: functional
# T8 sequence (Q9H0H5 whole entry): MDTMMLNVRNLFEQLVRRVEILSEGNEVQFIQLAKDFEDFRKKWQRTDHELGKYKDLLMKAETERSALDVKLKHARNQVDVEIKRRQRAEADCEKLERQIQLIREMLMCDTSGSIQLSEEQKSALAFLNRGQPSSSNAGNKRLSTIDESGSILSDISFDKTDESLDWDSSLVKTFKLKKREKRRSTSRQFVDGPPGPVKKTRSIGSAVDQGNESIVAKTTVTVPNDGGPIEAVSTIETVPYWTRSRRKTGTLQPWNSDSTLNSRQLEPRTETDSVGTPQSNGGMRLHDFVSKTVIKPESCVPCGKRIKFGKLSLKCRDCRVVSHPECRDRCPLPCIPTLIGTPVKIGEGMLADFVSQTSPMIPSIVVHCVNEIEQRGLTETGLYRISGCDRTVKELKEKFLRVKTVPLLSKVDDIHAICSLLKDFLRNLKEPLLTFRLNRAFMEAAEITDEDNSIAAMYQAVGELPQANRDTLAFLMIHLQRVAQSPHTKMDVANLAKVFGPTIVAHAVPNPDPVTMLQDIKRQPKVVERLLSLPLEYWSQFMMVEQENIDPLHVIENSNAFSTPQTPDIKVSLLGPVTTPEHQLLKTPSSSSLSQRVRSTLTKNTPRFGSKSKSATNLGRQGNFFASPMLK
# [27] = cells; assay type: functional, cell-based; remark: listed apart in the source
# [28] = target: T9, Trace amine-associated receptor 1 (Homo sapiens, UniProt Q96RJ0); test: Fluorescence-based cell-based high throughput dose response assay to identify agonists of the human trace amine associated receptor 1 (TAAR1).; assay type: functional
# T9 sequence (Q96RJ0 whole entry): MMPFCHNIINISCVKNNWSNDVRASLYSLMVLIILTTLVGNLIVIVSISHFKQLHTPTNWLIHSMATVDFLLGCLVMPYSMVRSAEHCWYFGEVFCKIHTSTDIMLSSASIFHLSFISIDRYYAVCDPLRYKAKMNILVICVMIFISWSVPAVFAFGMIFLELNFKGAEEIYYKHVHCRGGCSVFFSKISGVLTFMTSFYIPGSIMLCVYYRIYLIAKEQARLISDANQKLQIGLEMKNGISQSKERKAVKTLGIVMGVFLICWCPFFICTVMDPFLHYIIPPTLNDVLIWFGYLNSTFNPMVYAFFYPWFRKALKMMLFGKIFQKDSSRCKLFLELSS
# [29] = target: T9, Trace amine-associated receptor 1; test: Counterscreen for agonists of the human trace amine associated receptor 1 (hTAAR1): Fluorescence-based cell-based high throughput dose response assay to identify hTAAR1 agonist that also desensitize TAAR1 receptor response.; assay type: functional
# [30] = cells; assay type: functional, cell-based; remark: listed apart in the source
compound,measurement,setting,value
Cc1ccc2nc(N3C(=O)C(O)=C(C(=O)c4ccco4)C3c3cccs3)sc2c1 (stereo not given),EC50,[1],> 120 µM (not active)
same,EC50,[2],> 120 µM (not active)
same,EC50,[3],2.82 µM (active)
same,EC50,[4],> 120 µM (not active)
same,EC50,[5],4.98 µM (active)
same,EC50,[6],> 99 µM (inactive)
same,EC50,[7],> 99 µM (inactive)
same,IC50,[8],> 67.5 µM (inactive)
same,IC50,[9],> 67.5 µM (inactive)
Cc1cc([N+](=O)[O-])cc(/C=N/n2c(C)nc3ccccc3c2=O)c1O,EC50,[3],8.39 µM (active)
same,EC50,[5],7.71 µM (active)
same,IC50,[10],> 94 µM (inactive)
COc1cccc(C2=NOC(C(=O)N3CCc4ccccc4C3)C2)c1 (stereo not given),IC50,[11],45.2 µM (active)
same,IC50,[12],9.21 µM (active)
Cc1ccc(C2(C)NC(=O)N(CC(=O)Nc3ccc4[nH]c(=O)[nH]c4c3)C2=O)cc1 (stereo not given),IC50,[13],> 66.6 µM (inactive)
same,IC50,[14],16.5 µM (active)
CC1=NN(c2ccc(C)cc2C)C(=O)C1C(c1ccccc1O)C1C(=O)N(c2ccc(C)cc2C)N=C1C (stereo not given),IC50,[11],7.5 µM (active)
same,IC50,[12],18.9 µM (active)
Cc1ccc(C(=O)Nc2cccc([N+](=O)[O-])c2)cc1S(=O)(=O)Nc1ccc(NC(=O)c2ccccc2)cc1,EC50,[15],> 350 µM (not active)
same,EC50,[16],> 350 µM (not active)
same,IC50,[17],25.9 µM (active)
same,IC50,[18],61.1 µM (active)
C/C(=N/NC(=O)c1cccs1)c1cccc(N)c1,IC50,[8],> 67.6 µM (inactive)
same,IC50,[9],> 67.6 µM (inactive)
Cc1ccc(/C=C/C(=O)Nc2ccc([N+](=O)[O-])c(NC(=O)/C=C/c3ccc(C)o3)c2)o1,IC50,[19],41.3 µM (not active)
same,IC50,[20],2.12 µM (active)
same,IC50,[21],> 80 µM (inactive)
same,EC50,[22],228 µM (active)
same,IC50,[23],> 100 µM (active)
same,IC50,[24],5.89 µM (active)
same,IC50,[25],7.18 µM (active)
same,IC50,[17],5.24 µM (active)
same,IC50,[18],15.3 µM (active)
same,IC50,[26],165 µM (active)
COCCn1nnnc1C(c1ccc(O)c(OC)c1)N1CCc2ccccc2C1 (stereo not given),IC50,[20],7.06 µM (active)
same,IC50,[27],> 29.9 µM (inactive)
same,EC50,[28],0.695 µM (active)
same,IC50,[29],3.75 µM (active)
same,EC50,[30],> 29.9 µM (inactive)
O=C(CC1C(=O)NCCN1CCCc1ccccc1)NCCc1ccccc1F (stereo not given),IC50,[27],> 29.9 µM (inactive)
same,EC50,[28],1.71 µM (active)
same,IC50,[29],7.17 µM (active)
same,EC50,[30],> 29.9 µM (inactive)
O=C(CSc1ccc(-c2ccncc2)nn1)c1ccc(Cl)cc1,IC50,[13],> 66.6 µM (inactive)
same,IC50,[14],12.1 µM (active)
